From ChEMBL document CHEMBL4312021, “Discovery of [1,2,4]-triazolo [1,5-a]pyrimidine-7(4H)-one derivatives as positive modulators of GABAA1 receptor with potent anticonvulsant activity and low toxicity” (Eur J Med Chem, 2020) come the findings set out here.

Data set [1] has as its system Mus musculus. Description: Anticonvulsant activity in Kunming mouse assessed as reduction in MES-induced seizure at 30 to 300 mg/kg, ip measured after 30 mins. The format is functional, organism-based.
The subject of data set [2] is Mus musculus. The data set is described as follows: Anticonvulsant activity in Kunming mouse assessed as reduction in ScPTZ-induced seizure at 30 mg/kg, ip administered before 30 mins of ScPTZ stimulation. The format is functional, organism-based.
The test system of data set [3] is Mus musculus. Description: Anticonvulsant activity in Kunming mouse assessed as reduction in ScPTZ-induced seizure at 100 mg/kg, ip administered before 30 mins of ScPTZ stimulation. The format is functional, organism-based.
Data set [4] deals with Mus musculus. Description: Anticonvulsant activity in Kunming mouse assessed as reduction in ScPTZ-induced seizure at 300 mg/kg, ip administered before 30 mins of ScPTZ stimulation. It counts as functional, organism-based.
Data set [5] in a line: Neurotoxicity in ip dosed Kunming mouse assessed as reduction in equilibrium measured after 30 mins by rotarod test. The format is toxicity, organism-based. Particulars: in vivo. A general note: Falling from the rotarod earlier than controls is read as motor impairment.
In data set [6] the test system is Cortical neurone. Description: Antiepileptic actvity in C57BL/6 mouse Primary cortical neuron assessed as reduction in 4-AP-induced excitability measured for 8 mins by Fluo-8/AM staining based FLIPR assay. It counts as functional, cell-based. Particulars: C57BL/6, Cortical neurone.
Data set [7] has as its system Mus musculus. The data set is described as follows: Anticonvulsant activity in ip dosed Kunming mouse assessed as reduction in ScPTZ-induced seizure administered before 30 mins of ScPTZ stimulation. Particulars: 0.5 h. It counts as functional.
A short description of data set [8]: Protective index, ratio of TD50 for neurotoxicity in ip dosed Kunming mouse to ED50 for anticonvulsant activity in ip dosed Kunming mouse. It counts as toxicity, organism-based. Conditions: in vivo, read-out: Ratio TD50/ED50.
The test system of data set [9] is Mus musculus. The data set is described as follows: Anticonvulsant activity in ip dosed CF-1 mouse assessed as reduction in ScPTZ-induced seizure administered before 30 mins of ScPTZ stimulation. Particulars: CF-1, ip, 0.5 h. It counts as functional.
Data set [10] in a line: Solubility of compound in water. It counts as physicochemical.
Data set [11] is described as follows: Solubility of compound in DMSO. The format is physicochemical.

In brackets after ≈: the same amount, converted by molar mass. Activity calls are given as the source filed them. No cut-off for these calls is given here.

With `O=c1cc(Cc2ccc(Cl)cc2)[nH]c2nc(Cc3ccccc3)nn12`, the result in data set [1], in data set [2] and in [3] was inactive. The result in data set [4] was Active.

For the compound `O=c1cc(Cc2ccccc2)[nH]c2nc(Cc3ccccc3)nn12`, the outcome in data set [1], in data set [2], in data set [3] and in data set [4] was inactive.

`Cc1ccc(Cc2nc3[nH]c(-c4ccccc4)cc(=O)n3n2)cc1`: the TD50 at 0.5 h in data set [5] is 281 mg/kg. Also, in data set [6], the IC50 came out at 1150 nM. The outcome in data set [1] was inactive. Besides, the result in [2], in [3] and in data set [4] was Active. In data set [7], the ED50 was 65.8 mg/kg. Further, in data set [8], the selectivity ratio worked out at 4.26.

As to `Cc1ccc(-c2nc3[nH]c(Cc4ccc(Cl)cc4)cc(=O)n3n2)cc1`, the result in data set [1], in [2] and in data set [3] was inactive. Also, the outcome in data set [4] was Active.

Consider `CCCCCCc1nc2[nH]c(-c3ccc(Cl)cc3)cc(=O)n2n1`, for which the IC50 in [6] worked out at 8720 nM. Also, in data set [1], the result was inactive. The outcome in data set [2], in data set [3] and in data set [4] was Active.

As to `O=c1cc(Cc2ccccc2)[nH]c2nc(Cc3ccc(F)cc3)nn12`, the result in data set [1], in [2], in [3] and in data set [4] was inactive.

As for `O=c1cc(-c2ccc(Cl)cc2)[nH]c2nc(Cc3ccccc3)nn12`, the result in data set [1], in [2], in data set [3] and in data set [4] was inactive.

In the case of `CCCCCc1nc2[nH]c(-c3ccc(Cl)cc3)cc(=O)n2n1`, the IC50 in data set [6] was 8250 nM. Further, the result in data set [1] and in [4] was inactive. Also, the result in [2] and in data set [3] was Active.

As for `CCCCCc1nc2[nH]c(-c3ccccc3)cc(=O)n2n1`, the outcome in data set [1], in data set [2], in [3] and in [4] was inactive.

Take `CCCCc1nc2[nH]c(-c3ccccc3)cc(=O)n2n1`: the outcome in data set [1], in data set [2], in [3] and in data set [4] was inactive.

For the compound `CCC1(c2ccccc2)C(=O)NC(=O)NC1=O` [PHENOBARBITAL], the ED50 in data set [9] is 13.2 mg/kg.

As for `Cc1ccc(Cc2cc(=O)n3nc(-c4ccc(C)cc4)nc3[nH]2)cc1`, the outcome in [1], in [2], in [3] and in data set [4] was inactive.

As for `Cc1ccc(Cc2nc3[nH]c(Cc4ccccc4)cc(=O)n3n2)cc1`, the IC50 in [6] came to 2470 nM. Also, the outcome in [1] was inactive. Moreover, the outcome in [2], in data set [3] and in [4] was Active.

Consider `O=c1cc(-c2ccccc2)[nH]c2nc(Cc3ccccc3)nn12`, for which the IC50 in data set [6] is 1310 nM. Further, the outcome in [1] was inactive. In addition, the result in data set [2], in [3] and in [4] was Active.

Take `O=c1cc(Cc2ccc(Cl)cc2)[nH]c2nc(Cc3ccc(F)cc3)nn12`: in data set [6], the IC50 came out at 3650 nM. For the same compound, the outcome in data set [1] and in data set [2] was inactive. The outcome in data set [3] and in data set [4] was Active.

In the case of `Cc1ccc(-c2nc3[nH]c(Cc4ccc(F)cc4)cc(=O)n3n2)cc1`, the result in [1], in data set [2], in data set [3] and in data set [4] was inactive.

Regarding `CCCCCCCc1nc2[nH]c(-c3ccc(Cl)cc3)cc(=O)n2n1`, the result in data set [1], in data set [2], in data set [3] and in [4] was inactive.

On to `O=c1cc(-c2ccccc2)[nH]c2nc(Cc3ccc(F)cc3)nn12`, for which the TD50 at 0.5 h in data set [5] worked out at 261 mg/kg. In addition, the IC50 in data set [6] was 2520 nM. For the same compound, in data set [1], the result was inactive. The outcome in [2], in data set [3] and in [4] was Active. Also, the ED50 in data set [7] turned out to be 71.6 mg/kg. The selectivity ratio in data set [8] came to 3.67.

On to `CCCC(CCC)C(=O)O` [VALPROIC ACID], for which the ED50 in data set [9] amounted to 149 mg/kg.

For `Cc1ccc(-c2nc3[nH]c(-c4ccccc4)cc(=O)n3n2)cc1`, the IC50 in [6] was 3210 nM. Moreover, the solubility in data set [10] came out at 14.3 µg/mL (≈ 0.0473 mM); in data set [11], 3000 µg/mL (≈ 9.92 mM).

As to `Cc1ccc(Cc2cc(=O)n3nc(Cc4ccccc4)nc3[nH]2)cc1`, the outcome in [1], in data set [2], in data set [3] and in data set [4] was inactive.

`CCCCCCCc1nc2[nH]c(-c3ccccc3)cc(=O)n2n1`: the outcome in data set [1], in [2], in [3] and in data set [4] was inactive.

For `O=C1NC(=O)C(c2ccccc2)(c2ccccc2)N1` [PHENYTOIN], the ED50 in [9] is over 300 mg/kg.

`O=c1cc(Cc2ccccc2)[nH]c2nc(Cc3ccc(Cl)cc3)nn12`: in data set [6], the IC50 is 4280 nM. Also, the result in data set [1], in data set [2] and in data set [4] was inactive. Moreover, in [3], the outcome was Active.

Consider `O=c1cc(-c2ccccc2)[nH]c2nc(Cc3ccc(Cl)cc3)nn12`, for which, in data set [5], the TD50 at 0.5 h stood at 211 mg/kg. For the same compound, the IC50 in data set [6] stood at 1830 nM. In data set [1], the result was inactive. Moreover, the result in [2], in data set [3] and in data set [4] was Active. Also, the ED50 in [7] was found to be 61.1 mg/kg. Further, the selectivity ratio in data set [8] turned out to be 3.45.

For `Cc1ccc(Cc2nc3[nH]c(-c4ccc(Cl)cc4)cc(=O)n3n2)cc1`, in [6], the IC50 was found to be 5440 nM. The result in [1], in data set [2], in data set [3] and in [4] was inactive.

In the case of `Cc1ccc(Cc2cc(=O)n3nc(-c4ccccc4)nc3[nH]2)cc1`, the result in data set [1], in data set [2], in data set [3] and in data set [4] was inactive.

On to `O=c1cc(-c2ccc(Cl)cc2)[nH]c2nc(-c3ccccc3)nn12`, for which the IC50 in data set [6] came out at 2350 nM. Besides, the solubility turned out to be 14.3 µg/mL (≈ 0.0443 mM) in [10] and 3000 µg/mL (≈ 9.29 mM) in data set [11].

For the compound `NC(=O)N1c2ccccc2C=Cc2ccccc21` [CARBAMAZEPINE], in data set [9], the 50% effective dose (ED50) is over 100 mg/kg.

For `CCCCCCc1nc2[nH]c(-c3ccccc3)cc(=O)n2n1`, the result in data set [1], in data set [2], in data set [3] and in [4] was inactive.

For `CCCCc1nc2[nH]c(-c3ccc(Cl)cc3)cc(=O)n2n1`, the result in data set [1], in data set [2], in data set [3] and in [4] was inactive.

For orientation: TD50 means the dose at which the toxic effect under study appears in half of the subjects. For orientation: IC50 means the concentration that gives 50% inhibition. One may read the ED50 as the midpoint of the dose-response relation. As a reminder, the solubility is the concentration that dissolves in the medium under given conditions.
